Results as given in patent publication US12478592B2, “Dosage regime with esketamine for treating neuropsychiatric or neurological conditions” (priority 2019, dated 2025).

Tests used:
[1] = Single dose crossover study in healthy volunteers, pharmacokinetics
Source text: A randomized, open-label 4-way crossover study in 16 healthy male and female subjects was held wherein said subjects were placed in a randomly assigned order and administered esketamine. Each subject was assigned to 1 of 4 treatment sequences according to a randomization code such that 4 subjects were assigned to each treatment sequence. There was a wash-out period of at least 7 days between dosing periods with doses consisting of either oral or intravenous esketamine hydrochloride. The study consisted of an eligibility screening period of 28 days, 4 study periods involving administration of a single dose of esketamine hydrochloride followed by safety assessments with blood sampling for PK purposes up to 72 hours after study drug administration, discharge at 72 hours after study drug administration and a follow-up visit 7-14 days after the last PK blood sample was taken on Day 4.

male Sprague Dawley rats = test: 7-day forced swim test; type: in vivo; settings: 15 mg/kg i.p., single acute dose
Procedure: Groups of, 6-7 week old, male Sprague Dawley rats were administered esketamine by intraperitoneal injection and their behavioral despair assessed by a forced swim test. The animals, in cohorts of 10, were administered either a single dose of 15 mg/kg esketamine, 7 daily doses of either 7.5 or 15 mg/kg esketamine or a vehicle control, and the test performed 30 minutes after dosing. Statistical evaluation was performed using an ordinary One-Way ANOVA, t Test and an Uncorrected Fisher's LSD comparisons test.

[2] = Repeated dose 28 day study, toxicokinetics; settings: for Dose normalized AUC0-inf: Day 1
Procedure: The objective of the study was to assess the potential toxicity, neurobehavioral effects, and toxicokinetics (TK) of esketamine when administered orally, via gavage, to Sprague Dawley rats for 28 days and to evaluate recovery during a 14-day drug-free period. Fifty male and 50 female rats were randomized into 4 groups (15/sex/Groups 1 and 4; 10/sex/Groups 2 and 3). Esketamine was administered via oral gavage once daily for 28 consecutive days to males at 0 (vehicle control), 6, 10 or 30 mg/kg/day and females at 0 (vehicle control), 2, 10 or 20 mg/kg/day in a dose volume of 10 mL/kg. Animals were observed until euthanized and necropsied on Day 29 (10/sex/group) or 43 (5/sex from Groups 1 and 4). Toxicity was evaluated based on mortality, clinical observations, body weights, food consumption, ophthalmology, motor activity, functional observational battery, clinical pathology (clinical chemistry, hematology, coagulation and urinalysis), organ weights, anatomic (macroscopic or microscopic) pathology. Toxicokinetic animals (3/sex/Group 1; 6/sex/Groups 2, 3, and 4) were similarly dosed and bled on Day 1 and during Week 4 for toxicokinetic analysis.

[3] = system: human peripheral blood lymphocytes (HPBL)
Procedure: The clastogenic potential of esketamine was evaluated in the in vitro mammalian chromosome aberration test using human peripheral blood lymphocytes (HPBL) in both the absence and presence of an induced metabolic activation system (the 9000 g supernatant [S9] microsomal fraction of liver homogenate from rats exposed to Aroclor-1254).
The study was conducted in 2 phases, with a preliminary toxicity test used to determine the appropriate concentrations for the definitive chromosomal aberration assay. Water was used as a negative (vehicle) control. Toxicity (defined as ≥45% reduction in MI relative to the vehicle control) was evaluated at 9 concentrations, ranging from 0.0238 to 238 μg/ml, after exposure of HPBL to esketamine for 20 hours in the absence of S9 activation, or for 4 hours, either in the presence or absence of S9 activation, followed by a 16-hour recovery period.
The definitive chromosome aberration assay evaluated HPBL cells after exposure to esketamine for 20 hours in the absence of S9 activation, or for 4 hours, either in the presence of absence of S9 activation, followed by a 16-hour recovery. Positive controls for chromosomal aberrations in non-activated and S9-activated evaluations, respectively, consisted of mitomycin C (MMC, 0.6 and 0.3 μg/mL for the 4- and 20-hour exposures, respectively) and cyclophosphamide (CP, 2.5, 5, and 7.5 μg/mL). […] Initially, the doses selected for evaluation of chromosomal aberrations were 60, 120, and 238 μg/mL for the non-activated 4- and 20-hour treatment conditions; and 30, 60, and 200 μg/mL for the S9-activated 4-hour treatment condition.

Sprague Dawley rats [4] = test: Repeated dose 28 day study, toxicity; type: in vivo; settings: 28 days oral gavage; males 6, 10, 30 and females 2, 10, 20 mg/kg/day
Sprague Dawley rats [5] = test: 104 week carcinogenicity study; type: in vivo; settings: after 28 days at point of departure doses and at reduced doses after 730 days
Procedure: A 104 Week carcinogenicity study of esketamine administered via oral gavage to Sprague Dawley Rats is performed to evaluate the carcinogenic potential and determine the toxicokinetics of esketamine.
The study end-points include clinical observations, body weight changes, food consumption, bioanalytical toxicokinetic analysis, and anatomic macroscopic and microscopic pathology findings.

[6] = system: healthy male and female subjects; test: Single dose crossover study in healthy volunteers, adverse events; type: in vivo, human
Source text: A total of 128 TEAEs (treatment-emergent adverse event) were reported by 15 of 16 (94%) subjects of which 79 TEAEs reported by 14 of 16 (88%) subjects were to be related to the study drug. Overall, a total of 14 of 128 TEAEs reported by 4 (25%) subjects were of moderate severity and 114 of 128 TEAEs reported by 15 (94%) subjects were of mild severity. […] The most frequently occurring adverse events (reported more than twice) were headache, dizziness, hypokinesia, feeling abnormal, fatigue, euphoric mood inappropriate affect, nausea and hyperhidrosis. Table 4 presents the frequency of the most frequently reported related TEAEs as a percentage of the subjects that experienced an adverse effect per treatment.

liver of Crl:CD(SD) rats = test: In vivo single cell gel electrophoresis (comet) assay, liver; settings: for median % tail intensity (% TI) in liver vs vehicle control: 3 doses, p<0.001; for lower benchmark dose (BMDL50), single slide median Tail Intensity: PROAST v63.3
[7] = system: human peripheral blood lymphocytes (HPBL); remark: listed apart in the source
Procedure: The clastogenic potential of (S)-norketamine was evaluated in the in vitro mammalian chromosome aberration test using human peripheral blood lymphocytes (HPBL) in both the absence and presence of an induced metabolic activation system (the 9000 g supernatant [S9] microsomal fraction of liver homogenate from rats exposed to phenobarbital/5,6-benzoflavone).
The study was conducted in 2 phases, with a preliminary toxicity test used to determine the appropriate concentrations for the definitive chromosomal aberration assay. Water was used as a negative (vehicle) control. In both phases, the cells were treated for 3 and 21 hours in the absence of S9 mix and for 3 hours in the presence of S9 mix. The mitotic index was assessed for all cultures to determine cytotoxicity. Ten concentrations, ranging from 2.62 to 260.16 μg/mL, were evaluated in the preliminary toxicity test. […] (S)-Norketamine concentrations of 93.66, 156.10 or 260.16 μg/mL were selected for metaphase analysis.

[8] = Day 28, male rats, 6 mg/kg oral gavage once daily
[9] = Day 28, male rats, 10 mg/kg oral gavage once daily
[10] = plasma analyte after single 20 mg oral solution of esketamine hydrochloride

N[C@]1(c2ccccc2Cl)CCC[C@H](O)C1=O [(2S,6S)-OH-Norketamine, (2S,6S)-2-Amino-2-(2-chlorophenyl)-6-hydroxycyclohexanone]
Cmax, Geometric mean (CV %) ([1]; plasma analyte after single 20 mg oral solution of esketamine hydrochloride, 15 subjects): 46.46 (28%) ng/ml

CN[C@]1(c2ccccc2Cl)CCCCC1=O [esketamine, (2S)-2-(2-Chlorophenyl)-2-(methylamino) cyclohexanone]
effect on immobility time (male Sprague Dawley rats): 42 % of control | Dose normalized AUC0-inf ([2]; female rats, 2 mg/kg oral gavage): 29.0 (ng * h/ml)/(mg/kg) | Dose normalized AUC0-inf ([2]; female rats, 10 mg/kg oral gavage): 44.0 (ng * h/ml)/(mg/kg) | Dose normalized AUC0-inf ([2]; female rats, 20 mg/kg oral gavage): 49.8 (ng * h/ml)/(mg/kg) | Dose normalized AUC0-inf ([2]; male rats, 6 mg/kg oral gavage): 17.2 (ng * h/ml)/(mg/kg) | Dose normalized AUC0-inf ([2]; male rats, 10 mg/kg oral gavage): 18.1 (ng * h/ml)/(mg/kg) | Dose normalized AUC0-inf ([2]; male rats, 30 mg/kg oral gavage): 19.5 (ng * h/ml)/(mg/kg) | Dose normalized AUC0-t ([2]; Day 28, female rats, 2 mg/kg oral gavage once daily): 31.0 (ng * h/ml)/(mg/kg) | Dose normalized AUC0-t ([2]; Day 28, female rats, 10 mg/kg oral gavage once daily): 51.3 (ng * h/ml)/(mg/kg) | Dose normalized AUC0-t ([2]; Day 28, female rats, 20 mg/kg oral gavage once daily): 53.2 (ng * h/ml)/(mg/kg) | Cmax [2, 8]: 113.1 ng/mL | Dose normalized AUC0-t [2, 8]: 10.2 (ng * h/ml)/(mg/kg) | AUC0-t [2, 9]: 179 ng·h/mL | Dose normalized AUC0-t [2, 9]: 17.9 (ng * h/ml)/(mg/kg) | Dose normalized AUC0-t ([2]; Day 28, male rats, 30 mg/kg oral gavage once daily): 19.2 (ng * h/ml)/(mg/kg) | dose-normalized exposure, sex difference ([2]; after normalization for dose level differences): males had lower exposures than females | exposure Day 28 compared to Day 1 ([2]; exception: Cmax in females higher on Day 28): Exposures were similar on Day 28 compared to Day 1 | increase of exposure with dose ([2]; females, 2 to 20 mg/kg/day): slightly greater than dose-proportional | increase of exposure with dose ([2]; males, 6 to 30 mg/kg/day): generally dose-proportional | t1/2, Geometric mean (CV %) [1, 10]: 2.91 (37%) h | Cochran-Armitage test for dose response, structural aberrations [3]: positive for a dose response | Toxicity (≥45% reduction in MI relative to the vehicle control), preliminary toxicity test [3]: Toxicity was not observed at any dose | cytotoxicity (≥45% reduction in mitotic index relative to the vehicle control) ([3]; non-activated 4- and 20-hour treatment conditions): not observed at any esketamine dose | effects on clinical signs, body weights, food consumption, ophthalmology, motor activity, functional observational battery, clinical pathology or anatomic pathology (Sprague Dawley rats [4]): no esketamine-related effects | mortality (Sprague Dawley rats [4]): no mortality | genotoxic changes as shown in Examples 1 and 2 (Sprague Dawley rats [5]): not identified | related TEAE Dizziness, percentage of subjects ([6]; 0.3 mg/kg iv): 6% | related TEAE Euphoric mood, percentage of subjects ([6]; 0.3 mg/kg iv): 19% | related TEAE Fatigue, percentage of subjects ([6]; 0.3 mg/kg iv): 6% | related TEAE Feeling abnormal, percentage of subjects ([6]; 0.3 mg/kg iv): 13% | related TEAE Headache, percentage of subjects ([6]; 0.3 mg/kg iv): 19% | related TEAE Hypokinesia, percentage of subjects ([6]; 0.3 mg/kg iv): 6% | related TEAE Inappropriate affect, percentage of subjects ([6]; 0.3 mg/kg iv): 6% | related TEAE Nausea, percentage of subjects ([6]; 0.3 mg/kg iv): 6% | related TEAE Feeling abnormal, percentage of subjects ([6]; 20 mg oral solution): 19% | related TEAE Headache, percentage of subjects ([6]; 20 mg oral solution): 19% | related TEAE Inappropriate affect, percentage of subjects ([6]; 20 mg oral solution): 6% | related TEAE Dizziness, percentage of subjects ([6]; 20 mg oral tablet): 13% | related TEAE Fatigue, percentage of subjects ([6]; 20 mg oral tablet): 7% | related TEAE Feeling abnormal, percentage of subjects ([6]; 20 mg oral tablet): 7% | related TEAE Hyperhidrosis, percentage of subjects ([6]; 20 mg oral tablet): 7% | related TEAE Dizziness, percentage of subjects ([6]; 100 mg oral tablet): 13% | related TEAE Euphoric mood, percentage of subjects ([6]; 100 mg oral tablet): 13% | related TEAE Feeling abnormal, percentage of subjects ([6]; 100 mg oral tablet): 20% | related TEAE Headache, percentage of subjects ([6]; 100 mg oral tablet): 13% | related TEAE Hyperhidrosis, percentage of subjects ([6]; 100 mg oral tablet): 7% | related TEAE Hypokinesia, percentage of subjects ([6]; 100 mg oral tablet): 13% | related TEAE Inappropriate affect, percentage of subjects ([6]; 100 mg oral tablet): 7% | related TEAE Nausea, percentage of subjects ([6]; 100 mg oral tablet): 20% | number of TEAEs related to the study drug ([6]; all treatments): 79 | total number of TEAEs ([6]; all treatments, 16 subjects): 128 | number of TEAEs of mild severity ([6]; of 128 TEAEs): 114 | number of TEAEs of moderate severity ([6]; of 128 TEAEs): 14 | macroscopic examination (liver of Crl:CD(SD) rats; after 3 doses of treatment): no test item related lesions | group mean and median % TI values vs vehicle historical control range (liver of Crl:CD(SD) rats; female rats, 25 and 50 mg/kg/day): outside of the current vehicle historical control range | median % tail intensity (% TI) in liver vs vehicle control (liver of Crl:CD(SD) rats; female rats, 25 and 50 mg/kg/day oral gavage): Statistically significant increases | lower benchmark dose (BMDL50), single slide median Tail Intensity (liver of Crl:CD(SD) rats; female rats): 9.83 mg/kg/day | DNA strand breaks in the liver (liver of Crl:CD(SD) rats; male and female rats, oral gavage): evidence of causing an increase | Hedgehog cells in the liver (liver of Crl:CD(SD) rats; male or female rats, any dose level): No Hedgehog cells were observed | group mean and median % TI values vs vehicle historical control range (liver of Crl:CD(SD) rats; male rats, 75 mg/kg/day): outside of the current vehicle historical control range | median % tail intensity (% TI) in liver vs vehicle control (liver of Crl:CD(SD) rats; male rats, 75 mg/kg/day oral gavage): Statistically significant increases | lower benchmark dose (BMDL50), single slide median Tail Intensity (liver of Crl:CD(SD) rats; male rats): 27.31 mg/kg/day

CO[C@@]12[C@H](COC(N)=O)C3=C(C(=O)C(C)=C(N)C3=O)N1C[C@@H]1N[C@@H]12 [MMC, mitomycin C]
structural chromosomal aberrations, % of the cells [3]: 13.3% | mean MI value ([3]; non-activated systems, positive control 0.6 and 0.3 μg/mL for 4- and 20-hour exposures): 9%

N[C@]1(c2ccccc2Cl)CCCCC1=O [(S)-norketamine, (2S)-2-(2-Chlorophenyl)-2-(amino) cyclohexanone]
Toxicity (mitotic index), preliminary toxicity test [7]: Toxicity was not observed at any dose | clastogenicity, induction of structural and numerical chromosomal aberrations [7]: non-clastogenic | AUC0-inf, Geometric mean (CV %) [1, 10]: 416.89 (19%) ng · h/ml | AUC0-t, Geometric mean (CV %) [1, 10]: 404.96 (19%) ng · h/ml | t1/2, Geometric mean (CV %) [1, 10]: 8.88 (26%) h | t1/2, Geometric mean (CV %) ([1]; plasma analyte after single 100 mg oral tablet of esketamine hydrochloride): 9.27 (25%) h
